In the supplement of paper PMC10307832:

Key:
Test in all cases: relative viability (nuclei count vs DMSO), 5 days (fraction); higher = more cells survive
[1] = compound: C1=CC=C(C(=C1)C2=CC=C(C=C2)C3=CSC4=C3C(=C(C(=O)N4)C#N)O)O + Nc1nc2[nH]cc(CCc3ccc(C(=O)N[C@@H](CCC(=O)O)C(=O)O)cc3)c2c(=O)[nH]1 [Pemetrexed] (partner 0.2 µM)
Summary of the method: (§1)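 Relative viability was taken as the ratio of nuclei in treated wells to nuclei in vehicle wells. Lung cancer cell lines in 1536-well plates received compounds by pin tool one day after seeding, either one drug alone or a fixed anchor-drug dose plus five library-drug doses (not always all listed) in √10 steps. Nuclei were counted on 4× images after 5 days of treatment, and values are medians of duplicate plates.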

[2] = compound: O=C(CCCCCCNC(=O)c1cnc(N(c2ccccc2)c2ccccc2)nc1)NO [Ricolinostat] + CC(=O)Nc1cccc(-n2c(=O)n(C3CC3)c(=O)c3c(Nc4ccc(I)cc4F)n(C)c(=O)c(C)c32)c1 [Trametinib] (partner 0.02 µM)
Summary of the method: as §1

[3] = compound: C1=CC=C(C(=C1)C2=CC=C(C=C2)C3=CSC4=C3C(=C(C(=O)N4)C#N)O)O + Nc1ncn([C@H]2C[C@H](O)[C@@H](CO)O2)c(=O)n1 [Decitabine] (partner 2 µM)
Summary of the method: as §1

[4] = compound: C1=CC=C(C(=C1)C2=CC=C(C=C2)C3=CSC4=C3C(=C(C(=O)N4)C#N)O)O + NC(=O)Nc1cc(-c2cccc(F)c2)sc1C(=O)N[C@H]1CCCNC1 [AZD7762] (partner 0.2 µM)
Summary of the method: as §1

Cell Line | relative viability ([1]; first compound 0.08 µM) | relative viability ([1]; first compound 0.253 µM) | relative viability ([1]; first compound 0.8 µM) | relative viability ([1]; first compound 2.53 µM) | relative viability ([1]; first compound 8 µM) | relative viability ([2]; first compound 0.08 µM) | relative viability ([2]; first compound 0.253 µM) | relative viability ([2]; first compound 0.8 µM) | relative viability ([2]; first compound 2.53 µM) | relative viability ([3]; first compound 0.08 µM) | relative viability ([3]; first compound 0.253 µM) | relative viability ([3]; first compound 0.8 µM) | relative viability ([3]; first compound 2.53 µM) | relative viability ([3]; first compound 8 µM) | relative viability ([4]; first compound 0.08 µM) | relative viability ([4]; first compound 0.253 µM) | relative viability ([4]; first compound 0.8 µM) | relative viability ([4]; first compound 2.53 µM) | relative viability ([4]; first compound 8 µM)
NCI-H2126 | 0.837 | 0.823 | 0.694 | 0.664 | 0.513 | 0.531 | 0.548 | 0.564 | 0.52 | 0.646 | 0.617 | 0.578 | 0.622 | 0.513 | 1.01 | 1.09 | 0.973 | 1.1 | 0.763
HCC-15 | 0.237 | 0.232 | 0.213 | 0.242 | 0.215 | 0.352 | 0.397 | 0.379 | 0.333 | 0.444 | 0.671 | 0.625 | 0.814 | 0.494 | 1.4 | 1.38 | 1.46 | 1.32 | 0.93
NCI-H2085 | 0.838 | 1.01 | 0.801 | 0.886 | 0.818 | – | 0.491 | 0.516 | 0.513 | 0.543 | 0.615 | 0.499 | 0.528 | 0.495 | 0.891 | 1.06 | 0.86 | 1.02 | 0.997
LOU-NH91 | 0.386 | 0.337 | 0.399 | 0.384 | 0.406 | – | 0.783 | 0.763 | 0.864 | 0.854 | 0.865 | 0.824 | 0.781 | 0.782 | 0.79 | 0.804 | 0.745 | 0.733 | 0.701
NCI-H3122 | 0.19 | 0.201 | 0.22 | 0.213 | 0.19 | 0.221 | 0.256 | 0.248 | 0.313 | 0.513 | 0.435 | 0.362 | 0.421 | 0.535 | 0.985 | 0.987 | 0.995 | 1.03 | 0.917
HOP-62 | 0.364 | 0.336 | 0.301 | 0.348 | 0.279 | 0.335 | 0.391 | 0.384 | 0.432 | 0.218 | 0.238 | 0.221 | 0.238 | 0.211 | 0.533 | 0.548 | 0.376 | 0.704 | 0.474
LCLC-103H | 0.51 | 0.453 | 0.431 | 0.456 | 0.519 | 0.632 | 0.599 | 0.685 | 0.77 | 0.799 | 0.734 | 0.695 | 0.697 | 0.79 | 0.737 | 0.731 | 0.803 | 0.728 | 0.743
LU99A | 0.191 | 0.138 | 0.265 | 0.178 | 0.335 | 0.555 | 0.559 | 0.475 | 0.599 | 0.894 | 0.523 | 0.961 | 0.777 | 1.02 | 0.331 | 0.293 | 0.335 | 0.391 | 0.275
HCC-44 | 0.702 | 0.61 | 0.649 | 0.613 | 0.57 | 1.11 | 1.02 | 1.02 | 1.04 | 1.01 | 1.05 | 0.985 | 0.895 | 0.934 | 1.13 | 1.11 | 1.01 | 1.01 | 1.02
